Assay results from patent US20180042231A1, “Systems and Methods for the Continuous On-Site Production of Peroxycarboxcylic Acid Solutions” (Eltron Water Systems, LLC, priority 2016, published 2018).

What was measured:
[1] = Degradation (self-decay) of PAA solution over time; type: physicochemical; details: for degradation rate of non-equilibrium PAA: 2% concentration
Excerpt: Sometimes it is desirable to remove the very strong odor of the final equilibrium PAA product, such as when it is used indoors. Anti-microbial efficacy is roughly the same whether the PAA is in an acidic or alkaline state. The two most significant differences are: 1) alkaline PAA has no odor and 2) alkaline PAA self-degrades very rapidly when the pH is above 8, usually at 5-10% per hour. In situations where the PAA is to be used within minutes or hours of when it is made alkaline, the addition of an alkali earth metal in solution with water can be used alone or with more water to both dilute the PAA and raise its pH to any desired level, eliminating its odor. At this point other materials may be added to the alkaline PAA such as detergents, fragrance additives and even foaming agents.
The system of the present invention is designed such that the PAA is produced in a unique manner which differs substantially from prior art processes, the end product being inherently not at equilibrium. At 2% concentration, it degrades at about 6% per day if the pH is below 7 (acidic) and at 5-10% per hour when the pH is above 7. Use of a stabilizer will not halt that decay. Accordingly, the system herein disclosed is designed to generate PAA to be used within minutes or hours of when it is made, thereby eliminating the need for a stabilizer used by every other PAA manufacturer in the world.

[2] = Dissolution of triacetin in water; type: physicochemical; details: room temperature
Excerpt: A second method involves pre-dissolving traicetin in water outside the generator using time and mixing to eliminate the strands and globules. This approach requires a significant amount of extra water to be supplied to the generator, since at room temperature, the maximum amount of triacetin that can be dissolved is only approximately 4%.

CC(=O)OO [PAA, peracetic acid]
degradation rate of non-equilibrium PAA ([1]; pH above 7): 5-10 % per hour
degradation rate of non-equilibrium PAA ([1]; pH below 7 (acidic)): about 6 % per day
self-degradation rate of alkaline PAA ([1]; equilibrium PAA made alkaline, pH above 8): 5-10 % per hour

CC(=O)OCC(COC(C)=O)OC(C)=O [triacetin, 1,2,3-triacetoxypropane]
maximum amount of triacetin that can be dissolved in water [2]: approximately 4%
